In patent US20200291018A1, “TAM KINASE INHIBITORS” (SYROS PHARMACEUTICALS, INC., priority 2017, published 2020):

How the values were obtained:
MERTK = target: T1, MERTK (Homo sapiens, UniProt Q12866); assay: TR-FRET kinase activity assay, MERTK; assay type: biochemical; details: for IC50: TR-FRET activity assay, ATP at Km, 60 minutes, read-out: Mer IC50; for Mer/Flt3 ratio (FLT3 IC50/Mer IC50): ratio calculated as FLT3 IC50/Mer IC50
T1 sequence (Q12866 21-999): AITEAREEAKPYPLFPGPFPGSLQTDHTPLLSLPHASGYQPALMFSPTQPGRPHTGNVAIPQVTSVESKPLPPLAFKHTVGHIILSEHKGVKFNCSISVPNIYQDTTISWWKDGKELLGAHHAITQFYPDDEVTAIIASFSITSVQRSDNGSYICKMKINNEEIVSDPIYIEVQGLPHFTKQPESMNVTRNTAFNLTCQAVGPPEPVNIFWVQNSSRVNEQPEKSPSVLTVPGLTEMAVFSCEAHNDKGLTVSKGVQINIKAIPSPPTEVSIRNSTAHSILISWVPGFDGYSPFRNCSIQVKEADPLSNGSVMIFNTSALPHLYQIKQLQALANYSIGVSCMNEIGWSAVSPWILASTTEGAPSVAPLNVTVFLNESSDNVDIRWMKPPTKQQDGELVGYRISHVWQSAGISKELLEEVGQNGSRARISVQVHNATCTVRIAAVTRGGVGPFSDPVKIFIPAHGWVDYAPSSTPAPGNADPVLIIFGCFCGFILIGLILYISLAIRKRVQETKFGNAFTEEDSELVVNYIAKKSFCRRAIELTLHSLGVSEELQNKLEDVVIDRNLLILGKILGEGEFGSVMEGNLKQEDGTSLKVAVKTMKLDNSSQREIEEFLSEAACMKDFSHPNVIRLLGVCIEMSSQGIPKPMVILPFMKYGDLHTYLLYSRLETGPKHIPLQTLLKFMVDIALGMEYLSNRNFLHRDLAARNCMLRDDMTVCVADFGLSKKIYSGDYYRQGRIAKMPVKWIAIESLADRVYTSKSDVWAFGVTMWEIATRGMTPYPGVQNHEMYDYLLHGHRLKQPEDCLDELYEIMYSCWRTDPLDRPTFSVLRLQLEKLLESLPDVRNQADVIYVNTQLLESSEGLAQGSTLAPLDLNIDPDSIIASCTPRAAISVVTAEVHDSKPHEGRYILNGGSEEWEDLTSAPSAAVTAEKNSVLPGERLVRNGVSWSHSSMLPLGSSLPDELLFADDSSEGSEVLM
How it was run: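 Steps: compound, enzyme and labeled peptide combined at RT (50 mM HEPES pH 7.5, 10 mM MgCl2, 1 mM DTT); ATP added at Km; 60 min reaction; EDTA quench; Eu-antibody development 30 min in darkness; TR-FRET measured and IC50 fitted.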

TYRO3 = target: T2, TYRO3 (Homo sapiens, UniProt Q06418); assay: TR-FRET kinase activity assay, TYRO3; assay type: biochemical; details: ATP at Km, 60 minutes
T2 sequence (Q06418 41-890): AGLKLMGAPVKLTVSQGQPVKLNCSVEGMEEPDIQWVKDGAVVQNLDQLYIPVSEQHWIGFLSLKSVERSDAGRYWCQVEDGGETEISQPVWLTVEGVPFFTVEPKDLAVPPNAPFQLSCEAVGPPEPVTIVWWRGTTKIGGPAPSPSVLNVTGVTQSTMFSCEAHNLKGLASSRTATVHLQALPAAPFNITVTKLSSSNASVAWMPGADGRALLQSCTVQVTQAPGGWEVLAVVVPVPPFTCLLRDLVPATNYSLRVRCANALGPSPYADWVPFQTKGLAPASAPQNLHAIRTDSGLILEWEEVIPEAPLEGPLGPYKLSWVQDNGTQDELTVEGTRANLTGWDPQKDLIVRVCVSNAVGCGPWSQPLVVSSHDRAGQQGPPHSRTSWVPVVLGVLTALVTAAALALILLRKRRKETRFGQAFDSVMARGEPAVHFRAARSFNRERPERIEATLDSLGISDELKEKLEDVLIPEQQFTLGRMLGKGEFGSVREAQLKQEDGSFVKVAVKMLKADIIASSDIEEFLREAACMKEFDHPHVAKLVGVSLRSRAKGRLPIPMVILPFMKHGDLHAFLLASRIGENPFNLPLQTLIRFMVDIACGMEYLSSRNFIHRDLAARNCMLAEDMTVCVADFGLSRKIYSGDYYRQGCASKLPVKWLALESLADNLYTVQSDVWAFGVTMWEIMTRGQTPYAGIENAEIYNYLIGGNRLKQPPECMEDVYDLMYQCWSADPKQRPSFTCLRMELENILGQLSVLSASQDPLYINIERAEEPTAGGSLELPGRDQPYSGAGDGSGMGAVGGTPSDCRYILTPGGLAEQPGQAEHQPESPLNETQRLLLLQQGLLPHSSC
Procedure: IC50 values for compound inhibition of AXL, FLT3, MERTK and TYRO3 activity were determined using a TR-FRET activity assay. A peptide substrate with a fluorescent label is phosphorylated on a tyrosine by each enzyme, where the now phosphorylated product is bound by a Europium-labeled antibody specific to that phosphorylation site. The proximity between the antibody and the substrate gives a signal known as TR-FRET. As the enzyme is inhibited by compound, less phosphorylated peptide product is made, causing a decrease in overall signal.
Activity assays were performed in a 384-well, small volume, black microplates in an active enzyme volume of 10 uL and final developed volume of 20 uL. Final assay conditions are 50 mM HEPES pH 7.5, 10 mM MgCl2, 1 mM EGTA, 0.01% Brij 35 and 1 mM DTT, all at RT. Enzyme, substrate-labeled peptide and compound are mixed, and then the reaction is initiated with the addition of ATP at Km concentration for each enzyme. The reaction is allowed to run 60 minutes and then quenched with a 12.5 mM EDTA (ethylenediamine tetraacetic acid) solution. The plate is then developed with the addition of Europium-labeled antibody for a final volume of 20 uL and is then incubated for 30 minutes in darkness. Plates are read in a PHERASTAR® plate reader. Data are analyzed in GraphPad PRISM.

SMILES	IC50 (MERTK)	Mer/Flt3 ratio (FLT3 IC50/Mer IC50) (MERTK)	IC50 (TYRO3)
COC[C@H](C)Nc1ncc2c(OC3CCOCC3)ncc(-c3cccc(S(=O)(=O)N(C)C)c3)c2n1 [Compound 307, (S)-3-(2-((1-methoxypropan-2-yl)amino)-5-((tetrahydro-2H-pyran-4-yl)oxy)pyrido[4,3-d]pyrimidin-8-yl)-N,N-dimethylbenzenesulfonamide]	≤ 100 nM	+++ (a ratio of >100)	100 to 1000 nM
COC[C@H](C)Nc1ncc2c(OC3CCOCC3)ncc([C@H]3CC[C@](C)(O)CC3)c2n1 [Compound 293]	≤ 100 nM	+++ (a ratio of >100)	≤ 100 nM
CC(C)Nc1ncc2c(OC3CCOCC3)ncc(-c3cccc(S(=O)(=O)C(C)C)c3)c2n1 [Compound 318]	≤ 100 nM	+++ (a ratio of >100)	100 to 1000 nM
CC[C@H](C)Nc1ncc2c(O[C@H]3CC[C@@H](N(C)C)C3)ncc([C@H]3CC[C@H](O)CC3)c2n1 [Compound 298]	≤ 100 nM	+++ (a ratio of >100)	≤ 100 nM
CCc1cc(Nc2ncc3c(OC4CCNCC4)ncc([C@H]4CC[C@H](O)CC4)c3n2)ccc1Cl [Compound 300]	≤ 100 nM	++ (a ratio of between 10 and 100)	≤ 100 nM
COC[C@H](C)Nc1ncc2c(OC3CCOCC3)ncc([C@H]3CCCNC3)c2n1 [Compound 326]	100 to 1000 nM	NS (a ratio of ≤2.0)	100 to 1000 nM
C[C@@H](CC(F)(F)F)Nc1ncc2c(OC3CCOCC3)ncc([C@H]3CC[C@H](O)CC3)c2n1 [Compound 305]	≤ 100 nM	+++ (a ratio of >100)	≤ 100 nM
CS(=O)(=O)N1CC[C@H](Nc2ncc3c(OC4CCOCC4)ncc([C@H]4CC[C@H](O)CC4)c3n2)C1 [Compound 278]	100 to 1000 nM	++ (a ratio of between 10 and 100)	100 to 1000 nM
CN1CC(Nc2ncc3c(OC4CCOCC4)ncc([C@H]4CC[C@H](O)CC4)c3n2)CC1=O (stereo partly drawn) [Compound 282]	1000 to 10000 nM	++ (a ratio of between 10 and 100)	100 to 1000 nM
COC[C@H](C)Nc1ncc2c(O[C@H]3CCNCC3(F)F)ncc([C@H]3CC[C@H](O)CC3)c2n1 [Compound 302]	100 to 1000 nM	++ (a ratio of between 10 and 100)	100 to 1000 nM
COC[C@H](C)Nc1ncc2c(OC3CCOCC3)ncc(-c3cnn([C@@H]4CCN(C)C4)c3)c2n1 [Compound 314]	100 to 1000 nM	++ (a ratio of between 10 and 100)	100 to 1000 nM
COC[C@H](C)Nc1ncc2c(OC3CCOCC3)ncc([C@@H]3CCCNC3)c2n1 [Compound 327]	100 to 1000 nM	++ (a ratio of between 10 and 100)	1000 to 10000 nM
COC[C@H](C)Nc1ncc2c(C3CC3)ncc([C@H]3CC[C@H](O)CC3)c2n1 [Compound 349]	≤ 100 nM	+++ (a ratio of >100)	≤ 100 nM
CC[C@H](C)Nc1ncc2c(O[C@H]3CC[C@H](N)CC3)ncc([C@H]3CC[C@H](O)CC3)c2n1 [Compound 321]	≤ 100 nM	+++ (a ratio of >100)	≤ 100 nM
CNC(=O)N1CCC(c2cnc(OC3CCOCC3)c3cnc(N[C@@H](C)COC)nc23)CC1 [Compound 345]	100 to 1000 nM	++ (a ratio of between 10 and 100)	1000 to 10000 nM
O=C(O)[C@H]1CC[C@@H](Nc2ncc3c(OC4CCOCC4)ncc([C@H]4CC[C@H](O)CC4)c3n2)CC1 [Compound 353]	1000 to 10000 nM	+ (a ratio of >2.0 and <10)	1000 to 10000 nM
COC[C@H](C)Nc1ncc2c(OC3CCOCC3)ncc(-c3cccc(C(N)=O)c3)c2n1 [Compound 325]	100 to 1000 nM	++ (a ratio of between 10 and 100)	1000 to 10000 nM
O=C(O)c1ccc(Nc2ncc3c(OC4CCNCC4)ncc([C@H]4CC[C@H](O)CC4)c3n2)cc1 [Compound 283]	≤ 100 nM	+++ (a ratio of >100)	≤ 100 nM
CCCCNc1cc2c(cn1)c(=O)n(C1CCN(C)CC1)cc2[C@H]1CC[C@H](O)CC1 [Compound 116]	≤ 100 nM	+ (a ratio of >2.0 and <10)	≤ 100 nM
CCCC(C)Nc1ncc2c(=O)n(C3CCN(C)CC3)cc([C@H]3CC[C@H](O)CC3)c2n1 (stereo partly drawn) [Compound 117]	≤ 100 nM	+++ (a ratio of >100)	≤ 100 nM
O[C@H]1CC[C@H](c2cnc(OC3CCNCC3)c3cnc(Nc4ccc(Cl)c(Cl)c4)nc32)CC1 [Compound 299]	≤ 100 nM	++ (a ratio of between 10 and 100)	≤ 100 nM
COC[C@H](C)Nc1ncc2c(OC3C[C@H]4CC[C@@H](C3)N4C)ncc([C@H]3CC[C@H](O)CC3)c2n1 (stereo partly drawn) [Compound 343]	≤ 100 nM	+++ (a ratio of >100)	≤ 100 nM
COC[C@H](C)Nc1ncc2c(O[C@@H]3CCNCC3(F)F)ncc([C@H]3CC[C@H](O)CC3)c2n1 [Compound 308]	≤ 100 nM	+++ (a ratio of >100)	100 to 1000 nM
COC[C@H](C)Nc1ncc2c(O[C@H]3C[C@@H](O)C3)ncc([C@H]3CC[C@H](O)CC3)c2n1 [Compound 296]	≤ 100 nM	+++ (a ratio of >100)	≤ 100 nM
COC[C@H](C)Nc1ncc2c(OC3CCOCC3)ncc([C@H]3CC[C@H](NC(C)=O)CC3)c2n1 [Compound 315]	≤ 100 nM	+++ (a ratio of >100)	100 to 1000 nM
CCC1(Nc2ncc3c(OC4CCOCC4)ncc([C@H]4CC[C@H](O)CC4)c3n2)CC1 [Compound 339]	≤ 100 nM	+++ (a ratio of >100)	100 to 1000 nM
